For test [1], the system named is isolated guinea pig hearts. As to the kind of experiment: Cardiomyocyte apoptosis (TUNEL) in isolated ischemic/reperfused guinea pig hearts. It is filed as in vivo. The conditions noted are these: 5 mg/kg/day oral for 4 weeks; end of reperfusion; percent of total myocyte population; control 21±2%. Here is the method:
FIG. 2/B. Effects of CoQ10 and CoQ9 on cardiomyocyte apoptosis in isolated guinea pig hearts subjected to 30 min of ischemia followed by 120 min of reperfusion. The bars represent mean±SD of cardiomyocyte apoptosis for control, CoQ10 and CoQ9 supplemented groups. *p<0.05 compared to the untreated age-matched ischemic/reperfused drug-free control (C) value.
(§1) Experimental studies were designed to determine if CoQ9 could protect guinea pig hearts from ischemia reperfusion injury. Myocardial ischemia reperfusion injury model is the most widely accepted experimental method for assessment of parameters related to cardio-protection. […] Cardioprotection was assessed by evaluating left ventricular function, ventricular arrhythmias, myocardial infarct size and cardiomyocyte apoptosis.
CoQ9 and CoQ10 treatment reduces apoptosis of cardiomyocytes: Animal preparation, drug pretreatment and isolated working heart preparation were done as described in example 1. […] The fluorescence staining was viewed with a confocal laser microscope. The number of apoptotic cells was counted and expressed as a percent of total myocyte population. […] Apoptosis of cardiomyocytes determined by Tunel method in control group was about 21±2% at the end of reperfusion.

The test system of test [2] is isolated guinea pig hearts. Nature of the test: Reperfusion-induced ventricular fibrillation in isolated ischemic/reperfused hearts from orally treated guinea pigs. The class given is in vivo. Particulars: 5 mg/kg/day oral for 4 weeks; 30 min global ischemia then reperfusion; drug-free control 92%. As to the method:
FIG. 1. The incidence of reperfusion-induced ventricular fibrillation (VF). Guinea pigs were orally treated with a daily dose of 5 mg/kg of CoQ10 or CoQ9 or vehicle control for 4 weeks, and then hearts were excised, and isolated for perfusion via Langendorff mode and subjected to 30 min of global ischemia followed by 120 min of reperfusion. N=12 in each group, *p<0.05 compared to the drug-free control (C) group.
as §1
Protective effect of CoQ9 and CoQ10 against from Ventricular Fibrillation (VF): Healthy Male Hartley guinea pigs of about 350-400 gm body weight were randomly divided into three groups, Control, CoQ9 and CoQ10. […] Epicardial ECG was recorded through out the experiment, by attaching two silver electrodes directly to the myocardium and data collected using a data acquisition system (ADInstruments, Powerlab, Castle Hill, Australia). ECGs were analyzed to determine ventricular fibrillation (VF) and ventricular tachycardia (VT). […]

For `COC1=C(OC)C(=O)C(C/C=C(\C)CC/C=C(\C)CC/C=C(\C)CC/C=C(\C)CC/C=C(\C)CC/C=C(\C)CC/C=C(\C)CC/C=C(\C)CCC=C(C)C)=C(C)C1=O` [CoQ9, Coenzyme Q9], in test [1], the “apoptotic cardiomyocytes (Tunel method)” value amounted to 7±1.5%. Besides, the “incidence of reperfusion-induced ventricular fibrillation (VF)” value in test [2] worked out at 8%.
On the same counts, the results for `COC1=C(OC)C(=O)C(C/C=C(\C)CC/C=C(\C)CC/C=C(\C)CC/C=C(\C)CC/C=C(\C)CC/C=C(\C)CC/C=C(\C)CC/C=C(\C)CC/C=C(\C)CCC=C(C)C)=C(C)C1=O` [CoQ10, Coenzyme Q10, reference compound] are 6±1% and 25%.

The record behind these values is US20100209486A1, “Method of enhancing CoenzymeQ10 levels in mammals” (priority 2009, published 2010).
